From patent US20100267952A1, “USE OF NOVEL COMPOUND HAVING AFFINITY FOR AMYLOID, AND PROCESS FOR PRODUCTION OF THE SAME” (NIHON MEDI-PHYSICS CO., LTD., priority 2007, published 2010)

Experiments:
[1] = biological target: T1, amyloid (aggregated Aβ1-42) injected into amygdaloid nucleus (Homo sapiens, UniProt P05067); assay: Confirmation of imaging of amyloid in brain (autoradiogram of brain slice, Aβ1-42 injected rat); type: in vivo, male Wistar rat; details: tail vein, 11-15 MBq equivalent, brain removed 60 minutes after injection
T1 construct: Aβ1-42 (Wako) was dissolved in phosphate buffer (pH 7.4); purchased Wako
T1 sequence (P05067 672-713): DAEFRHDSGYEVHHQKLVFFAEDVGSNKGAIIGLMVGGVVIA
Protocol: (1) Aβ1-42 (Wako) was dissolved in phosphate buffer (pH 7.4) and shaken at 37° C. for 72 hours, to obtain a 1 mg/mL suspension of aggregated Aβ (hereinafter referred to as amyloid suspension in this Example).
(2) 2.5 μL (corresponding to 25 μg) of the amyloid suspension was injected into an amygdaloid nucleus on one side of a male Wistar rat (7-week old). As a control, 2.5 μL of a phosphate buffered physiological saline solution (pH 7.4) was injected into an amygdaloid nucleus on the other side of the rat. The rats were examined 1 day after the injection of the amyloid suspension and the phosphate buffered physiological saline solution (pH 7.4).
This solution was injected under thiopental anesthesia into the rat through the tail vein (dosage: 0.5 mL, dosed radioactivity: 11-15 MBq equivalent).
(4) Brain was removed 60 minutes after the injection to prepare a brain slice of 10 μm in thickness with a microtome (type: CM3050S, manufactured by LEICA). The brain slice was exposed to an imaging plate for 20 hours, and then image analysis was carried out by use of a Bio-imaging Analyzer (type: BAS-2500; manufactured by FUJIFILM Corporation).

[2] = Radioactive distribution ratio in each organ; type: in vivo, SD rat
Protocol: 0.2 mL each of the prepared sample solution was administered under non-thiopental anesthesia into the tail vein of the above rat. The rats were sacrificed by bleeding from abdominal artery, and each organ shown in Table 3 was removed 5, 30, 60 and 180 minutes after the administration. […] Also, radioactivity of the whole body of the rat after removal of the organs (hereinafter referred to as rest of the whole body) was measured. Using these measurement results, radioactive distribution per unit weight of each organ (% ID/g) at the respective time points was calculated in accordance with the following formula (3).
Three animals were used for the experiment at the respective time points.
R^T: Radioactivity of target organ (cpm) R^S: Sum of radioactivity of all the organs (cpm) R^R: Radioactivity of the rest of the whole body (cpm) M^T: Mass of target organ (g)

[3] = Transferability into brain and clearance (2); type: in vivo, male Wistar rats; details: rats, intravenous injection, Table 1-10
Protocol: 0.05 mL each of these solutions was injected under thiopental anesthesia into the tail vein of respective Wistar rats (7-week old). The rats were sacrificed by bleeding from abdominal artery, and brains were removed and subjected to measurement of mass of brains and further subjected to measurement of radioactivity (hereinafter referred to as A in this Example) with a single channel analyzer (detector type: SP-20 manufactured by OHYO KOKEN KOGYO Co., Ltd.) 2, 5, 30 and 60 minutes after the injection. Also, radioactivity (hereinafter referred to as B in this Example) of the rest of the whole body was measured in the same manner as above. Using these measurement results, radioactive distribution per unit weight of brain (% ID/g) at the respective time points were calculated in accordance with the following formula (1-7).
Three animals were used for experiment at the respective time points.

[4] = SD rat, tail vein, 5 min. after administration
[5] = SD rat, tail vein, 30 min. after administration
[6] = SD rat, tail vein, 60 min. after administration
[7] = SD rat, tail vein, 180 min. after administration

## FCCOc1ccc(-c2cn3cc([123I])ccc3n2)cc1 [Compound I-9, 2-[4′-(2″-fluoroethoxy)phenyl]-6-[^123I]iodoimidazo[1,2-a]pyridine]
[1]
  accumulation of radioactivity in amygdaloid nucleus on the amyloid-injected side (autoradiogram): marked accumulation of radioactivity
[2]; SD rat, tail vein
  excretion / clearance to the outside of the body: biliary-excreted rapidly after the administration
[2]; [4]
  Radioactive distribution per unit weight, Adrenal gland, Average: 3.914 % ID/g
  Radioactive distribution per unit weight, Blood, Average: 0.370 % ID/g
  Radioactive distribution per unit weight, Bone, Average: 0.187 % ID/g
  Radioactive distribution per unit weight, Brain, Average: 0.701 % ID/g
  Radioactive distribution per unit weight, Heart, Average: 0.551 % ID/g
  Radioactive distribution per unit weight, Kidney, Average: 1.114 % ID/g
  Radioactive distribution per unit weight, Large intestine, Average: 0.106 % ID/g
  Radioactive distribution per unit weight, Liver, Average: 2.399 % ID/g
  Radioactive distribution per unit weight, Lung, Average: 0.647 % ID/g
  Radioactive distribution per unit weight, Marrow, Average: 0.815 % ID/g
  Radioactive distribution per unit weight, Muscle, Average: 0.239 % ID/g
  Radioactive distribution per unit weight, Pancreas, Average: 0.650 % ID/g
  Radioactive distribution per unit weight, Small intestine, Average: 1.259 % ID/g
  Radioactive distribution per unit weight, Spleen, Average: 0.442 % ID/g
  Radioactive distribution per unit weight, Stomach, Average: 0.287 % ID/g
[2]; [5]
  Radioactive distribution per unit weight, Adrenal gland, Average: 0.457 % ID/g
  Radioactive distribution per unit weight, Blood, Average: 0.142 % ID/g
  Radioactive distribution per unit weight, Bone, Average: 0.067 % ID/g
  Radioactive distribution per unit weight, Brain, Average: 0.067 % ID/g
  Radioactive distribution per unit weight, Heart, Average: 0.111 % ID/g
  Radioactive distribution per unit weight, Kidney, Average: 0.560 % ID/g
  Radioactive distribution per unit weight, Large intestine, Average: 0.070 % ID/g
  Radioactive distribution per unit weight, Liver, Average: 0.337 % ID/g
  Radioactive distribution per unit weight, Lung, Average: 0.192 % ID/g
  Radioactive distribution per unit weight, Marrow, Average: 0.075 % ID/g
  Radioactive distribution per unit weight, Muscle, Average: 0.052 % ID/g
  Radioactive distribution per unit weight, Pancreas, Average: 0.236 % ID/g
  Radioactive distribution per unit weight, Small intestine, Average: 6.598 % ID/g
  Radioactive distribution per unit weight, Spleen, Average: 0.092 % ID/g
  Radioactive distribution per unit weight, Stomach, Average: 0.619 % ID/g
[2]; [6]
  Radioactive distribution per unit weight, Adrenal gland, Average: 0.260 % ID/g
  Radioactive distribution per unit weight, Blood, Average: 0.108 % ID/g
  Radioactive distribution per unit weight, Bone, Average: 0.045 % ID/g
  Radioactive distribution per unit weight, Brain, Average: 0.026 % ID/g
  Radioactive distribution per unit weight, Heart, Average: 0.059 % ID/g
  Radioactive distribution per unit weight, Kidney, Average: 0.302 % ID/g
  Radioactive distribution per unit weight, Large intestine, Average: 0.074 % ID/g
  Radioactive distribution per unit weight, Liver, Average: 0.178 % ID/g
  Radioactive distribution per unit weight, Lung, Average: 0.130 % ID/g
  Radioactive distribution per unit weight, Marrow, Average: 0.000 % ID/g
  Radioactive distribution per unit weight, Muscle, Average: 0.031 % ID/g
  Radioactive distribution per unit weight, Pancreas, Average: 0.115 % ID/g
  Radioactive distribution per unit weight, Small intestine, Average: 8.235 % ID/g
  Radioactive distribution per unit weight, Spleen, Average: 0.069 % ID/g
  Radioactive distribution per unit weight, Stomach, Average: 0.672 % ID/g
[2]; [7]
  Radioactive distribution per unit weight, Adrenal gland, Average: 0.017 % ID/g
  Radioactive distribution per unit weight, Blood, Average: 0.074 % ID/g
  Radioactive distribution per unit weight, Bone, Average: 0.032 % ID/g
  Radioactive distribution per unit weight, Brain, Average: 0.007 % ID/g
  Radioactive distribution per unit weight, Heart, Average: 0.030 % ID/g
  Radioactive distribution per unit weight, Kidney, Average: 0.108 % ID/g
  Radioactive distribution per unit weight, Large intestine, Average: 5.241 % ID/g
  Radioactive distribution per unit weight, Liver, Average: 0.067 % ID/g
  Radioactive distribution per unit weight, Lung, Average: 0.074 % ID/g
  Radioactive distribution per unit weight, Marrow, Average: 0.000 % ID/g
  Radioactive distribution per unit weight, Muscle, Average: 0.016 % ID/g
  Radioactive distribution per unit weight, Pancreas, Average: 0.073 % ID/g
  Radioactive distribution per unit weight, Small intestine, Average: 2.657 % ID/g
  Radioactive distribution per unit weight, Spleen, Average: 0.037 % ID/g
  Radioactive distribution per unit weight, Stomach, Average: 0.812 % ID/g
[2]; bone
  ratio (% ID/g at 5 minutes after the administration)/(% ID/g at 180 minutes after the administration): 6
[2]; brain
  ratio (% ID/g at 5 minutes after the administration)/(% ID/g at 180 minutes after the administration): 94
[2]; heart
  ratio (% ID/g at 5 minutes after the administration)/(% ID/g at 180 minutes after the administration): 18
[2]; lung
  ratio (% ID/g at 5 minutes after the administration)/(% ID/g at 180 minutes after the administration): 9
[2]; pancreas
  ratio (% ID/g at 5 minutes after the administration)/(% ID/g at 180 minutes after the administration): 9
[3]; 2 min.
  Radioactive distribution per unit weight in brain, After 2 min.: 0.72 % ID/g
[3]; 5 min.
  Radioactive distribution per unit weight in brain, After 5 min.: 0.49 % ID/g
[3]; 30 min.
  Radioactive distribution per unit weight in brain, After 30 min.: 0.07 % ID/g
[3]; 60 min.
  Radioactive distribution per unit weight in brain, After 60 min.: 0.02 % ID/g
